Data as given in the NIST ThermoML archive (doi:10.1016/j.jct.2005.12.007).
Numbers after ± are expanded uncertainties.

Details: 298.15 K, 101.33 kPa, Liquid; for viscosity: Capillary tube (Ostwald / Ubbelohde) method; for mass density: Pycnometric method; for speed of sound: Sing-around technique in a fixed-path interferometer

CCCCNCCCC [dibutylamine]
viscosity: 0.821 ± 0.008 mPa·s
mass density: 757.53 ± 0.74 kg/m3
speed of sound: 1243.4 ± 1.4 m/s

CCCCN [1-butanamine]
viscosity: 0.486 ± 0.007 mPa·s
mass density: 733.3 ± 1 kg/m3
speed of sound: 1249.7 ± 2.2 m/s

CCCCN(CCCC)CCCC [tributylamine]
viscosity: 1.258 ± 0.012 mPa·s
mass density: 773.56 ± 0.76 kg/m3
speed of sound: 1245.3 ± 1.4 m/s
